Where “and” joins values, the source holds several entries; their conditions need not be identical. Equal values may be shown once.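 Exposure lasted 48 hours, with cells grown in 96-well plates and compounds tested at five concentrations. TGI: concentration producing complete growth inhibition.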

Experimental findings from PubChem BioAssay (NCI) are described below.

Among the test systems are COLO 205 colon; DLD-1 colon; DMS 114 small cell lung; DMS 273 small cell lung; HCT-15 colon; KM20L2 colon; LXFL 529 NSCLC; M19-MEL melanoma; SNB-78 CNS; HOP-18 NSCLC; RXF-631 renal; XF 498 CNS; MCF7 breast; NCI/ADR-RES ovarian; T-47D breast.
What all share (assay): NCI anticancer screen, dose series, 48 h

In the case of `O=C1NC2C(CCO)CC=C[C@H]2c2cc3c(cc21)OCO3` (stereo partly specified), the TGI in the experiment with COLO 205 colon, with DLD-1 colon, in the experiment with DMS 114 small cell lung, in the experiment on DMS 273 small cell lung, with HCT-15 colon and in the experiment on KM20L2 colon was more than 100 µM each time. Besides, the TGI in the experiment with LXFL 529 NSCLC, in the experiment with M19-MEL melanoma and with SNB-78 CNS was more than 100 µM in each case.
Consider `COC1=CC(=O)C2C(C1=O)C(c1ccc(OC)c(OC)c1)[C@H]2C` (stereo partly specified), for which the TGI with COLO 205 colon is 36.9 µM; in the experiment with DLD-1 colon it was 31.5 µM; in the experiment on DMS 114 small cell lung it was 42.3 µM; in the experiment on DMS 273 small cell lung it was 60.3 µM; with HCT-15 colon, 34.5 µM; in the experiment with HOP-18 NSCLC it was 35.1 µM. Further, the TGI was more than 100 µM in the experiment with KM20L2 colon; 33.3 µM in the experiment with LXFL 529 NSCLC; 42.1 µM with M19-MEL melanoma; 32.7 µM with RXF-631 renal; more than 100 µM with SNB-78 CNS; 29.9 µM with XF 498 CNS.
For `COc1ccc(C(SCC(N)C(=O)O)(c2ccc(OC)cc2)c2ccc(OC)cc2)cc1` (stereo unspecified), the TGI in the experiment with COLO 205 colon is 17 µM; in the experiment on HCT-15 colon, 18.1 µM; in the experiment with MCF7 breast, 16.5 µM; with NCI/ADR-RES ovarian it was 19.4 µM; with T-47D breast it was 21.4 µM.
Consider `CN(C)CCCN1c2ccccc2CCc2cc([N+](=O)[O-])ccc21`, for which the TGI in the experiment with COLO 205 colon is 60.1 µM and 32.4 µM; in the experiment on HCT-15 colon, 83.3 µM and 37.4 µM; in the experiment on MCF7 breast it was 79 µM and 31.8 µM; in the experiment with NCI/ADR-RES ovarian, 82 µM and 39.8 µM; in the experiment with T-47D breast, 43.9 µM and 37.7 µM.
In the case of `c1cc(NC2=NCCO2)c2c(c1)OCO2`, the TGI in the experiment on COLO 205 colon, with HCT-15 colon, in the experiment with MCF7 breast, in the experiment on NCI/ADR-RES ovarian and in the experiment with T-47D breast was more than 100 µM in each case.
Turning to `COC(=O)[C@H](COC(=O)/C=C/c1ccc(OC(C)=O)c(OC(C)=O)c1)NC(=O)/C=C/c1ccc(OC(C)=O)c(OC(C)=O)c1`, the TGI in the experiment on COLO 205 colon was 37 µM; with HCT-15 colon, 70.6 µM; in the experiment on MCF7 breast, more than 100 µM; in the experiment with NCI/ADR-RES ovarian, more than 100 µM; in the experiment with T-47D breast, 14.4 µM.
Turning to `O=C(/C=C/c1ccc2c(c1)OCO2)CC(=O)/C=C/c1ccc2c(c1)OCO2`, the TGI in the experiment with COLO 205 colon, in the experiment on HCT-15 colon, in the experiment on MCF7 breast, in the experiment with NCI/ADR-RES ovarian and with T-47D breast was more than 100 µM each time.
`O=C(O)c1ccc(NNC(=O)c2cccc3c(=O)c4ccccc4[nH]c23)cc1`: the TGI in the experiment with COLO 205 colon, in the experiment with HCT-15 colon, in the experiment with MCF7 breast, in the experiment with NCI/ADR-RES ovarian and with T-47D breast was more than 100 µM in each case.
For the molecule `Oc1cccc2c1[nH]c1c(C3=C[C@@]4(O)CC/C=C\CCCCN5CC[C@@H]3[C@]3(CC6/C=C\CCCCN6[C@H]34)C5)nccc12` (stereo partly specified), the TGI in the experiment with COLO 205 colon came to 3.71 µM; in the experiment on HCT-15 colon, 1.86 µM; in the experiment with MCF7 breast, 1.77 µM; in the experiment with NCI/ADR-RES ovarian it was 6.31 µM; in the experiment on T-47D breast, 3.19 µM.
Turning to `CCn1c2ccccc2c2cc(NC(=O)c3c(NCCNCCO)nc(=O)[nH]c3C)ccc21`, the TGI in the experiment on COLO 205 colon, in the experiment on HCT-15 colon, in the experiment with MCF7 breast, in the experiment on NCI/ADR-RES ovarian and in the experiment with T-47D breast was more than 100 µM throughout.
In the case of `COC(=O)c1ccccc1C1CN=NC12Cc1cc(C)cc(C)c1C2=O` (stereo unspecified), the TGI was more than 100 µM with COLO 205 colon; 76.6 µM in the experiment with HCT-15 colon; more than 100 µM with MCF7 breast; more than 100 µM in the experiment on NCI/ADR-RES ovarian; more than 100 µM in the experiment with T-47D breast.
As to `C=C(CN)CO[Si](C)(C)C(C)(C)C`, the TGI in the experiment on COLO 205 colon, in the experiment on HCT-15 colon, in the experiment on MCF7 breast, in the experiment on NCI/ADR-RES ovarian and in the experiment with T-47D breast was more than 100 µM in each case.
Turning to `CC(=O)CCC[C@H](C)[C@@H](O)[C@@H]1O[C@H]([C@@]2(C)CCC(=O)O2)C[C@H]1C(=O)O`, the TGI with COLO 205 colon, with HCT-15 colon, with MCF7 breast, with NCI/ADR-RES ovarian and in the experiment with T-47D breast was more than 100 µM each time.
In the case of `Cc1ccc(/C=N/NS(=O)(=O)c2ccc(/C=C3\NC(=O)NC3=O)cc2)cc1`, the TGI in the experiment on COLO 205 colon, in the experiment on HCT-15 colon, in the experiment on MCF7 breast, in the experiment with NCI/ADR-RES ovarian and in the experiment on T-47D breast was more than 100 µM throughout.
In the case of `CC1=CC(=O)/C(=C/n2c(=S)[nH]c3ccc([N+](=O)[O-])cc32)C(=O)O1`, the TGI with COLO 205 colon, in the experiment with HCT-15 colon, with MCF7 breast, with NCI/ADR-RES ovarian and in the experiment on T-47D breast was more than 100 µM throughout.
On to `O=C(N/N=C(\c1nc2ccc(Cl)cc2[nH]c1=O)C(O)c1ccccc1Cl)c1ccncc1` (stereo unspecified), for which the TGI with COLO 205 colon, in the experiment on DLD-1 colon, in the experiment on DMS 114 small cell lung, in the experiment with DMS 273 small cell lung, in the experiment on HCT-15 colon and with HOP-18 NSCLC was more than 100 µM in each case. For the same molecule, the TGI in the experiment on KM20L2 colon, with LXFL 529 NSCLC, in the experiment with M19-MEL melanoma and in the experiment with RXF-631 renal was more than 100 µM throughout.
In the case of `CC1=C[C@@H]2[C@@H](CC(CO)=C[C@H]3[C@@H]4C(C)(C)[C@]4(OCC(C)C)[C@H](OCC(C)C)[C@@H](C)[C@]23O)C1=O`, the TGI in the experiment on COLO 205 colon is 1.4 µM; in the experiment on HCT-15 colon it was 2.77 µM; in the experiment on MCF7 breast, 6.89 µM; in the experiment on NCI/ADR-RES ovarian it was 8.31 µM; with T-47D breast it was more than 8.32 µM.
On to `Cc1cn(C2CC(NC(=NCC3OC(n4cnc5c(N)ncnc54)CC3O)NC#N)C(CO)O2)c(=O)[nH]c1=O` (stereo unspecified), for which the TGI in the experiment with COLO 205 colon, in the experiment on HCT-15 colon, in the experiment with MCF7 breast, in the experiment with NCI/ADR-RES ovarian and with T-47D breast was more than 100 µM each time.
Turning to `COC(=O)/C=C1/OC(c2ccc(C)cc2)=C(Cl)C1=O`, the TGI was found to be 23.7 µM in the experiment with COLO 205 colon; 26.4 µM in the experiment on HCT-15 colon; 34.9 µM in the experiment with MCF7 breast; 56.1 µM in the experiment on NCI/ADR-RES ovarian; 52.1 µM in the experiment on T-47D breast.
The corresponding values for `N#CC1(C#N)C(c2ccccc2)C=CC(c2ccc([N+](=O)[O-])cc2)C1(C#N)C#N` (stereo unspecified) are 3.13 µM, 16.5 µM, 21.1 µM, more than 74.4 µM and 7.27 µM.
